Test results reported in US8729053B2, “Nuclear factor kappa B pathway inhibitor composition and use of same” (The United States of America, as represented by the …, priority 2008, dated 2014).
“Also recorded” adds a separate entry of the source. Counter-ions that a name gives are not always drawn.

How the values were obtained:
Format in all cases: cell-based
IκBα = assay: Immunoblot of phosphorylated IκBα in HEK293 cells
Protocol: (§1) To measure endogenous level of several proteins in response to TPA induction and compound I, HEK293 cells were lysed with RIPA buffer (10 mM Tris-HCl pH 7.5, 1 mM EDTA, 0.1% sodium dodecyl sulfate, 0.1% deoxycholate, and protease inhibitor). Whole cell extracts were subjected to immunoblot analysis with the following antibodies: p65 (F-6), p50 (E-10), p52 (C-5), RelB (C-19), IκBα (C-21), PCNA (F-2) were obtained from Santa Cruz Biotechnology (Santa Cruz, Calif.). IKKα, IKKβ, IKKγ, phospho-IκBα, phospho-IKKα/β, phospho-IKKγ, pohospho-Stat3 (Tyr 705 and Ser 727), phospho-p65 (Ser536 and Ser276), phospho-p44/42, phospho-JNKs were purchased from Cell Signaling (Danvers, Mass.), and α-tubulin from Sigma (St. Louis, Mo.). Nuclear and cytoplasmic extracts were prepared with HEK293 cells by NE-PER Nuclear and Cytoplasmic Extraction Reagents (Pierce Biotechnology, Rockford, Ill.) according to the manufacturer's protocol.
To characterize the activity of compound I in targeting events upstream of NFκB, endogenous levels of kinases involved in NFκB activation were examined by immunoblot analysis. The well-established upstream regulators of NFκB activation are IKKα, IKKβ, and IκBα. […] Moreover, the phosphorylation of IκBα was inhibited even at 1.1 μM showing dose-dependent decrease by compound I pretreatment. […] In addition, compound I inhibits TNFα-induced phosphorylation of IKKα/β and IκBα at 1 hour. IKKβ from IKKα was not able to be distinguished in this analysis with antibodies which detect phosphorylated IKKα at Ser176/180 and IKKβ at Ser177/181. TPA-induced phosphorylation of IκBα is mediated primarily through IKKβ catalytic activity; thus compound I represses phosphorylation of IKKβ and in an embodiment both IKKβ and IKKα. […] The total protein levels of IKKα/β, IKKγ, and IκBα were not affected. Thus, upstream activation events rather than transcription factor binding to DNA are targeted by compound I when it inhibits NFκB induction.

JNK = assay: Immunoblot of TPA-induced JNK phosphorylation; conditions: 17.0 μM and 8.5 μM pretreatment
Protocol: as §1
(§2) The selectivity of compound I was evaluated by measuring phosphorylation of proteins involved in the AP-1 induction pathway. AP-1 dependent transcription can be activated by MAP Kinases JNK, ERK 1/2 (p44/42). […] At these concentrations compound I, in contrast, completely repressed major regulators in the NFκB activation pathway. JNKs are activated by a variety of environmental stresses responsible for AP-1 activation through c-Jun phosphorylation. […]

[1] = test system: SRE (Serum response element); assay: SRE luciferase reporter assay in HEK293 cells; conditions: HEK293, TPA 10 ng/ml 18 hours
Protocol: (§3) All expression plasmids were transiently transfected into HEK293 cells in a 96-well plate (0.1 μg/well) by using Effectene transfection reagent (Qiagen, Valencia, Calif.) according to the manufacturer's manual. HEK293 cells were maintained in Dulbecco's modified Eagle medium (Sigma, St. Louis, Mo.) supplemented with 10% fetal bovine serum (Atlanta Biologicals, Lawrenceville, Ga.) and incubated at 37° C. in a 5% CO2 incubator. After 24 hrs incubation, the medium was changed to DMEM with 0.2% FBS, and the transfectants were exposed to various concentrations of compound I and TPA (10 ng/ml). Cells were lysed with passive lysis buffer and the luciferase assay was performed using the Firefly-Luciferase reporter assay system (Promega, Madison, Wis.) and MLX Luminometer (Dynex Technology, Chantilly, Va.).
Three different luciferase reporter genes, AP-1 reporter containing four times TRE consensus originated from GCN4 and SRE reporter purchased from Stratagene (La Jolla, Calif.) respectively are as described previously (Suzukawa et al., Environ. Health Perspect., 2002, 110, 865-70). NFκB reporter is driven by five times NFκB responsive element inserted into Cis-reporter backbone (Stratagene, La Jolla, Calif.). […]

p65 = assay: Immunoblot of phosphorylated p65
Protocol: as §1

NFκB = NFκB luciferase reporter assay in HEK293 cells
Protocol: as §3
Three different luciferase reporter genes, AP-1 reporter containing four times TRE consensus originated from GCN4 and SRE reporter purchased from Stratagene (La Jolla, Calif.) respectively are as described previously (Suzukawa et al., Environ. Health Perspect., 2002, 110, 865-70). NFκB reporter is driven by five times NFκB responsive element inserted into Cis-reporter backbone (Stratagene, La Jolla, Calif.). Others include mouse COX-2 promoter region from −203 to +70 relative to the transcription site inserted into pTIS10L vector (Kim and Fischer, J. Biol. Chem., 1998, 273, 27686-94), human uPAR promoter region from −141 to +47 relative to transcription start site in pGL3 vector (Wang et al., Eur. J. Biochem., 2000, 267, 3248-54), and human VEGF promoter sequence from −2274 to +379 inserted into the pGL2 vector (Ding et al., J. Biol. Chem., 2006, 281, 9093-100).
To evaluate whether the compound I biological activity can imitate TAM67 specificity, three different transcriptional promoter reporters were used, AP-1, NFκB, and SRE (Serum response element) in luciferase reporter assays (FIG. 1A: The transfected cells were pre-treated with varied concentrations of compound I or DMSO for 1 hour before 18 hours stimulation by TPA (10 ng/ml) or DMSO as vehicle. An asterisk (*) indicates a separate experiment with NFκB dependent luciferase only. Assays were performed with two independent experiments each in quadruplicate.). All three activities were induced by TPA but only induction of AP-I and NFκB were inhibited by TAM67. The SRE reporter was used as a specificity control and indicator of cell proliferation. TPA-induced SRE activity was not repressed by TAM67 when coexpressed with the SRE-Luc reporter in HEK293 cells. The same concentration (10 ng/ml, 16.2 nM) and incubation time (18 hrs) were used for TPA induction as previously used for the high throughput screen (HTS) (Ruocco et al., J. Biomol. Screen., 2007, 12, 133-9) along with 1 h pretreatment of compound I. The screening results had tested concentrations as high as 40 μM compound I with cell numbers showing 95.5+/−6.2% of DMSO control (ave+/− sd, n=3) by the XTT assay in HEK293T cells.

ERK 1/2 (p42/44) = assay: Immunoblot of TPA-induced ERK 1/2 phosphorylation; conditions: 17.0 μM and 8.5 μM pretreatment
Protocol: as §1, §2

IKKα/β = assay: Immunoblot of phosphorylated IKKα/β in HEK293 cells
Protocol: as §1
To characterize the activity of compound I in targeting events upstream of NFκB, endogenous levels of kinases involved in NFκB activation were examined by immunoblot analysis. The well-established upstream regulators of NFκB activation are IKKα, IKKβ, and IκBα. […] Moreover, the phosphorylation of IκBα was inhibited even at 1.1 μM showing dose-dependent decrease by compound I pretreatment. […]

IC50 (NFκB; Homo sapiens, HEK293, 1 h pretreatment, TPA 10 ng/ml 18 hrs, read-out: IC50 against TPA-induced NFκB reporter): ~4 µM
Structure (SMILES): Cc1cc(N)ccc1N=Nc1ccc(S(=O)(=O)CCOS(=O)(=O)O)cc1 [compound I, 2-(4-((4-amino-2-methylphenyl)diazenyl)phenylsulfonyl)ethyl hydrogen sulfate]
TPA-induced phosphorylation of IκBα (IκBα; 1.1 μM): inhibited; also recorded: reduced
TPA-induced phosphorylation of IκBα (IκBα; 17.0 and 8.5 μM pretreatment, HEK293): almost completely blocked; also recorded: complete blocking
Total protein levels of IKKα/β, IKKγ, and IκBα (IκBα; HEK293 immunoblot): not affected
TPA-induced phosphorylation of IκBα (IκBα; at 6 and 12 hours): inhibited
TNFα-induced phosphorylation of IκBα (IκBα; at 1 hour): inhibits
TPA-induced phosphorylation of endogenous JNK (JNK): no repression
TPA-induced SRE luciferase activity [1]: repressed but to a lesser degree than AP-1
Phosphorylation of p65 at Ser536 (p65): inhibited
Phosphorylation of p65 at Ser536 and Ser276 (p65; FIG. 7): decreased
Inhibition of TPA-induced NFκB luciferase activity (NFκB; HEK293, TPA 10 ng/ml, compound I at all concentrations tested): dose-dependently inhibited
Inhibition of NFκB induced by TNFα (NFκB; TNFα induction): dose-dependent inhibition
TPA-induced NFκB luciferase activity (NFκB; compound at 17.0 μM): completely blocked to the non-induced level
Transcriptional activation of NFκB dependent genes (NFκB; concentrations as low as 1.1 μM): repressed
Basal NFκB luciferase activity (NFκB; without TPA induction): inhibited, but to a lesser extent
TPA-induced phosphorylation of endogenous ERK 1/2 (p42/44) (ERK 1/2 (p42/44)): no repression
TPA-induced phosphorylation of IKKα/β (IKKα/β; HEK293, compared with IκBα inhibition at 17.0 and 8.5 μM): reduces
TNFα-induced phosphorylation of IKKα/β (IKKα/β; at 1 hour): inhibits
